Data taken from PMC4977753, “Inhibition of ADAM10 promotes the clearance of Aβ across the BBB by reducing LRP1 ectodomain shedding” (Fluids and Barriers of the CNS, 2016).

Assays:
mice = details: 200 mg/kg i.p. once per day for 5 consecutive days; cited from earlier work
Experimental: PSAPP mice at 35 weeks of age were injected intraperitoneally with 200 mg/kg of GI254023X or vehicle (DMSO) once per day for 5 consecutive days. At this age, PSAPP mice display elevated levels of Aβ peptides in the brain [22]. […] One hour after the final injection, the mice were euthanatized and plasma and brain tissue were collected. The right hemisphere was used to examine the levels of soluble and insoluble Aβ40 and Aβ42 in the brain. ...

[1] = system: in vitro BBB model (HBMEC monolayer); assay: Permeability of paracellular marker Lucifer yellow-dextran across the in vitro BBB model (integrity control); format: cell-based, human; details: 10 kDa Lucifer yellow-dextran, any of the GI254023X concentrations, data not shown
PSAPP mice [2] = assay: Tolerability of the GI254023X treatment regimen in PSAPP mice; format: in vivo; details: 200 mg/kg i.p. once per day for 5 days
Experimental: PSAPP mice at 35 weeks of age were injected intraperitoneally with 200 mg/kg of GI254023X or vehicle (DMSO) once per day for 5 consecutive days. At this age, PSAPP mice display elevated levels of Aβ peptides in the brain [22]. […] One hour after the final injection, the mice were euthanatized and plasma and brain tissue were collected. The right hemisphere was used to examine the levels of soluble and insoluble Aβ40 and Aβ42 in the brain. […] Quantification of Aβ40 and Aβ42 in the GS, GI, and plasma fractions was determined using an ELISA for human Aβ40 and Aβ42 (Invitrogen, USA) and expressed as ng of Aβ per μg total protein. […] LRP1 levels in the soluble brain fraction and plasma were assessed using a mouse ELISA for LRP1 (Cedar Lane Labs, USA). Soluble brain LRP1 was normalized to the total protein content in the brain homogenate as determined by the BCA protein assay (Thermo Scientific, USA). Soluble brain LRP1 levels were expressed as ng of LRP1 per mg protein. Plasma LRP1 levels were expressed as ng/ml. […] The sAPPα levels were normalized to the total protein content in the brain homogenate as determined by the BCA protein assay and expressed as ng of sAPPα per mg protein.

[3] = system: LRP1 shedding in human brain endothelial cells (HBMEC); assay: In vitro LRP1 shedding in HBMEC monolayers (LRP1 ELISA of extracellular media); format: cell-based; details: 48 h, 37 °C
Experimental: Human Brain Microvessel endothelial cells (HBMECs) (ScienCell, USA) were seeded at 50,000 cells per cm^2 onto fibronectin-coated 6-well plates as previously described by our group. When approximately 90 % confluent, cells were treated with Aβ42 (2 μM) or both Aβ42 and the ADAM10-selective inhibitor GI254023X (1 μM) (Sigma-Aldrich, USA) and incubated at 37 °C for 48 h. […] After the 48 h incubation, the extracellular media was collected and the level of soluble LRP1 was assessed using an ELISA for LRP1 (Cat# SEB010Hu, Cedar Lane Labs, USA).
Fig. 1 LRP1shedding in human brain endothelial cells (HBMEC) following ADAM10 inhibition. HBMEC monolayers were exposed to human Aβ42 (2 μM) alone, Aβ42 (2 μM) and the ADAM10 inhibitor GI254023X (1 μM) for 48 h at 37 °C. LRP shedding was assessed by examining LRP content in the extracellular media using an LRP1 ELISA. Values represent mean ± SEM (n = 3) and are expressed as ng of extracellular LRP1 per ml of media. *p < 0.05 as determined by one-way ANOVA followed by Tukey’s post hoc analysis

[4] = system: in vitro BBB model (HBMEC monolayer); assay: Fluorescein-Aβ42 transit across an in vitro BBB model; format: cell-based, human; details: fluorescein-Aβ42 2 μM basolateral, 60 min, 37 °C, basolateral-to-apical, n = 3
Experimental: The impact of ADAM10 on Aβ42 transcytosis was assessed using an in vitro BBB model previously described by our group. HBMECs were seeded onto fibronectin-coated 24-well membrane inserts forming a polarized monolayer representing the BBB. Aβ transcytosis across the BBB was assessed by exposing the basolateral side (“brain”) to 2 μM fluorescein-Aβ42 (rPeptide, USA) and treating the apical side (“blood”) with the ADAM10-selective inhibitor GI254023X (0.1–1 μM). After 60 min of incubation at 37 °C, samples were collected from the apical compartment to assess the basolateral-to-apical transcytosis of fluorescein-Aβ across the BBB model.
Fig. 2 Fluorescin-Aβ42 transit across an in vitro BBB model following ADAM10 inhibition. Fluorescin-Aβ42 (2 μM) was exposed to the basolateral (“brain”) side of the in vitro BBB model, while various concentrations of the ADAM10 inhibitor GI254023X (0, 0.1, 1, and 10 μM) were exposed to the apical (“blood”) compartment. Following incubation at 37 °C, samples were collected from the […] at 60 min to assess the basolateral-to-apical transcytosis of fluorescin-Aβ42 across the BBB model. Values represent mean ± SEM (n = 3) and are expressed as the percentage change from control conditions. *p < 0.05; **p < 0.01; ***p < 0.001 as determined by one-way ANOVA followed by Tukey’s post hoc analysis

PSAPP mice [5] = assay: Aβ, soluble LRP1 and sAPPα levels in PSAPP mice following ADAM10 inhibition; format: in vivo, mouse; details: 200 mg/kg i.p. once per day for 5 days
Experimental: PSAPP mice at 35 weeks of age were injected intraperitoneally with 200 mg/kg of GI254023X or vehicle (DMSO) once per day for 5 consecutive days. At this age, PSAPP mice display elevated levels of Aβ peptides in the brain [22]. […] One hour after the final injection, the mice were euthanatized and plasma and brain tissue were collected. The right hemisphere was used to examine the levels of soluble and insoluble Aβ40 and Aβ42 in the brain. Briefly, the hemispheres were homogenized by sonication in 700 μl lysis buffer [M-PER + 1 % EDTA +0.2 % PMSF (Thermo Scientific, USA)] supplemented with Halt protease and phosphatase inhibitor cocktail (Thermo Scientific, USA) on ice before centrifugation at 14000g for 30 min at 4 °C. 100 μl of the resulting supernatant was mixed with 5 M guanidine in TRIS buffer resulting in the guanidine soluble (GS) fraction. For the guanidine insoluble (GI) fraction, 100 μl of the guanidine stock was combined with the original tissue pellet. Both GS and GI fractions were subsequently incubated at room temperature for 1 h and were mixed every 15 min. All samples were stored at −80 °C prior to analysis. Quantification of Aβ40 and Aβ42 in the GS, GI, and plasma fractions was determined using an ELISA for human Aβ40 and Aβ42 (Invitrogen, USA) and expressed as ng of Aβ per μg total protein. The left hemisphere was used to examine the levels of soluble LRP1 in the brain. Here, the hemisphere was homogenized using a Dounce homogenizer in ice cold in HBSS using the same procedure as the in vivo LRP1 shedding studies above. LRP1 levels in the soluble brain fraction and plasma were assessed using a mouse ELISA for LRP1 (Cedar Lane Labs, USA). Soluble brain LRP1 was normalized to the total protein content in the brain homogenate as determined by the BCA protein assay (Thermo Scientific, USA). Soluble brain LRP1 levels were expressed as ng of LRP1 per mg protein. Plasma LRP1 levels were expressed as ng/ml. In addition, sAPPα levels were examined in the brain homogenate of these same animals using an ELISA for sAPPα (IBL international, USA). The sAPPα levels were normalized to the total protein content in the brain homogenate as determined by the BCA protein assay and expressed as ng of sAPPα per mg protein.
Fig. 4 LRP1 shedding brain and plasma following ADAM10 modulation in a mouse model of AD. The ADAM10 inhibitor GI254023X (200 mg/kg) or vehicle (DMSO) was administered via intraperitoneal injection once per day for five consecutive days to PSAPP mice (35 weeks of age). One hour after the final injection, the brains and plasma was collected and the soluble brain fraction a and the plasma b was probed for LRP using an ELISA. Values represent mean ± SEM (n = 8–9 [soluble brain LRP1] or 5 [soluble plasma LRP1]) and are expressed as the amount of LRP per mg total protein or per ml. *p < 0.05 as determined by an unpaired t test
Fig. 5 Levels of sAPPα in the brain following ADAM10 modulation in a mouse model of AD. PSAPP mice (35 weeks of age) were treated in an acute 5-day treatment paradigm with ADAM10 inhibitor GI254023X (200 mg/kg) or vehicle (DMSO) which were administered via intraperitoneal injection. One hour after the final treatment, the brains were collected and sAPPα in the whole brain homogenate was probed using an sAPPα ELISA. Values represent mean ± SEM (n = 8–9) and are expressed as the amount of sAPPα per mg total protein. Statistical significance determined by an unpaired t test
Fig. 6 Aβ plasma levels following ADAM10 modulation in a mouse model of AD. The ADAM10 inhibitor GI254023X (200 mg/kg) or vehicle (DMSO) was administered via intraperitoneal injection once per day for five consecutive days to PSAPP mice (35 weeks of age). One hour after the final injection, the plasma was collected and probed for a Aβ40 and b Aβ42 by ELISA. Values represent mean ± SEM (n = 8–9) and are expressed as the amount of Aβ40 or Aβ42 per ml of plasma. […]

[6] = PSAPP mice, guanidine insoluble fraction, ELISA, n = 8-9, not statistically significant
[7] = PSAPP mice, guanidine soluble fraction, ELISA, n = 8-9, not statistically significant

Compound	ADAM10 activity in mice under this treatment regime (mice)	tolerability of treatment regime (mice)	BBB permeability of the paracellular marker Lucifer yellow-dextran versus control [1]	tolerability of treatment regimen (appearance, behavior, weight loss) (PSAPP mice [2])	effect on Aβ42-induced extracellular LRP1 shedding ([3]; Aβ42 2 μM plus GI254023X 1 μM, n = 3)	transcytosis of fluorescein-Aβ across in vitro BBB model (trend) ([4]; GI254023X 0.1, 1, 10 μM apical)	increase of fluorescein-Aβ transcytosis across in vitro BBB model versus control ([4]; significant increases at concentrations higher than 1 μM GI254023X) [fold]	reduction of soluble LRP1 in the brain versus vehicle (PSAPP mice [5]; PSAPP mice 35 weeks, 1 h after final injection, soluble brain fraction, ELISA, n = 8-9, p < 0.05) [%]	reduction of insoluble Aβ40 in the brain versus vehicle (PSAPP mice [5]; [6]) [fold]	reduction of insoluble Aβ42 in the brain versus vehicle (PSAPP mice [5]; [6]) [fold]	reduction of soluble Aβ40 in the brain versus vehicle (PSAPP mice [5]; [7]) [fold]	reduction of soluble Aβ42 in the brain versus vehicle (PSAPP mice [5]; [7]) [fold]	LRP1 levels in the plasma versus vehicle (PSAPP mice [5]; PSAPP mice, plasma, ELISA, n = 5)	effect on Aβ42 plasma levels versus vehicle (PSAPP mice [5]; PSAPP mice, plasma, ELISA, n = 8-9)	increase of Aβ40 in the plasma versus vehicle (PSAPP mice [5]; PSAPP mice, plasma, ELISA, n = 8-9, significant) [fold]	level of sAPPα in the brain versus vehicle (PSAPP mice [5]; PSAPP mice, whole brain homogenate, sAPPα ELISA, n = 8-9)	extracellular shedding of LRP1 compared to control conditions ([3]; Aβ42 2 μM, mean ± SEM n = 3, significant (p < 0.05))
CNC(=O)[C@@H](NC(=O)[C@H](CCCc1ccccc1)[C@H](C)N(O)C=O)C(C)(C)C [GI254023X]	effectively inhibit ADAM10 activity	well tolerated with no adverse effects reported	no significant difference	well tolerated	completely abrogated the effect of Aβ42 on shedding	increased following GI254023X treatment in a dose dependent manner	≥ 1.25	60	1.20	1.20	1.15	1.25	not significantly different	not significant	1.45	No significant difference	
Aβ42: human recombinant beta-amyloid 42 peptide, used to induce LRP1 shedding; fluorescein-labeled form used as transport probe																	twofold
